Reference: US4206117A, “Pyridinyl aminoalkyl ethers” (BASF Aktiengesellschaft, priority 1977, dated 1980)

Experiments:
[1] = test system: Aconitineinduced arrhythmia, rats; assay: animal or person; assay type: in vivo, rats (Sprague Dawley); conditions: for ED50 / Emax: Rattus norvegicus, po; for ED50: 1 h, read-out: Effective dose ED 50 (extends the duration of aconitine infusion by 50%); for Emax: read-out: R.M.A. (relative maximum activity); for Maximum action: Prolongation of the duration of aconitine infusion, Δ% / R.M.A. (relative maximum activity): at the highest nontoxic dose; for Maximum action: Prolongation of the duration of aconitine infusion, Δ% / Maximum action: Dose (highest nontoxic dose): oral, rats; for R.A. (relative activity) / R.M.A. (relative maximum activity): quinidine = 1.00
Protocol: (§1) To determine the anti-arrhythmic activity, the drugs were administered orally to rats (Sprague Dawley, weight from 180 to 240 g) 45 minutes before the start of the narcosis.
(§2) The animals were narcotized with thiobutabartial (100 mg/kg administered intraperitoneally). The arrhythmogenic substance used was aconitine, which was administered by intravenous infusion (at a rate of 0.005 mg/kg.min) 60 minutes after administration of the test substance.
(§3) For a quantitative evaluation of the linear relation between log dose (mg/kg) of the test substances and relative prolongation of the duration of aconitine infusion (Δ%), the dose which extended the duration of infusion by 50% (ED 50) was determined.

[2] = Acute toxicity, intraperitoneal administration; conditions: mouse, in vivo, ip, female Swiss mice, within 24 hours, read-out: Acute toxicity LD 50
Protocol: (§4) The acute toxicity was determined on groups of 10 or 20 female Swiss mice, weighing 20-26 g, the compounds being administered intraperitoneally.

[3] = Therapeutic range, quotient of LD 50 (mice) and ED 50 (rats); assay type: in vivo; conditions: in vivo; LD 50 mice i.p. / ED 50 rats oral
Protocol: as §1
as §2, with “substance. In the case of untreated animals (N=30), arrhythmias occurred after an average of 3.7±0.9 minutes, the commencement of which can be delayed by anti-arrhythmic agents, the delay depending on the dosage.” for “substance.”
as §3, with “determined. The prior art anti-arrhythmic agent quinidine served as a comparative substance.” for “determined.”
as §4

[4] = test system: Aconitineinduced arrhythmia, rats; assay: as above; assay type: in vivo; conditions: relative to quinidine
Protocol: as §1
as §2, with “substance. In the case of untreated animals (N=30), arrhythmias occurred after an average of 3.7±0.9 minutes, the commencement of which can be delayed by anti-arrhythmic agents, the delay depending on the dosage.” for “substance.”
as §3, with “determined. The prior art anti-arrhythmic agent quinidine served as a comparative substance.” for “determined.”
as §4

Structure (SMILES) | ED50 [1] [mg/kg] | Emax [1] [%] | Maximum action: Prolongation of the duration of aconitine infusion, Δ% [1] [%] | Maximum action: Dose (highest nontoxic dose) [1] [mg/kg] | R.A. (relative activity) [1] | LD50 at 24 h [2] [mg/kg] | selectivity ratio [3] | R.M.A. (relative maximum activity) [1] | therapeutic range compared with that of quinidine (in words) [4]
Cc1nc(Cc2ccccc2)c2c(c1OCCCCCNC(C)C)COC2 [Example 52] | 16 | 169 | 225 | 215 | 2.64 | 104 | 6.5 | – | –
Cc1nc(Cc2ccccc2)c2c(c1OCCC(C)CCNC(C)C)COC2 (centres unmarked) [Example 55] | – | – | 333 | 100 | 3.47 | – | – | 2.50 | –
CCN(CC)CCC(C)CCOc1c(C)nc(Cc2ccccc2)c2c1COC2 (centres unmarked) [Example 57] | – | – | 261 | 100 | 3.74 | – | – | 1.96 | –
CCNCCCCOc1c(C)nc(Cc2ccccc2)c2c1COC2 [Example 58] | 18.8 | 140 | 186 | 100 | 2.27 | 114 | 6.06 | – | –
CCC(C)NCCCCOc1c(C)nc(Cc2ccccc2)c2c1COC2 (centres unmarked) [Example 60] | 21.1 | 185 | 246 | 100 | 2.00 | 101 | 4.79 | – | –
Cc1nc(Cc2ccccc2)c2c(c1OCCCCNC(C)(C)C)COC2 [Example 61] | – | – | 298 | 46.4 | 4.60 | – | – | 2.24 | –
Cc1nc(Cc2ccccc2)c2c(c1OCCCCN(C(C)C)C(C)C)COC2 [Example 64] | 21.2 | 238 | 317 | 100 | 2.01 | 156 | 7.36 | – | –
Cc1nc(Cc2ccccc2)c2c(c1OCCCCNCCC(C)(C)O)COC2 [Example 68] | 15.8 | 181 | 241 | 100 | 2.70 | ~68.1 | ~4.31 | – | as great as
Cc1nc(Cc2ccccc2)c2c(c1OCC(O)CNC(C)C)COC2.Cl (centres unmarked) [Example 69, 4-benzyl-6-methyl-1,3-dihydrofuro[3,4-c]pyridin-7-yl 2-hydroxy-3-isopropylaminopropyl ether hydrochloride] | 23 | 164 | 218 | 464 | 1.84 | 107 | 4.65 | – | –
C=C[C@H]1C[N@@]2CC[C@H]1C[C@@H]2[C@@H](O)c1ccnc2ccc(OC)cc12 [Quinidine, quinidine, reference compound] | – | – | 133 | – | – | – | – | – | –
